Where “and” joins values, the source holds several entries; their conditions need not be identical. Equal entries are not always repeated. Inconclusive results and toxic doses are left out. Square brackets hold non-standard residues; d marks the D form. Peptide text beside a SMILES is read from it. * marks the point of attachment. ξ: configuration not given here. Cbz = O=C(OCc1ccccc1)*; ξV = CC(C)C(N)C(=O)O; Sar = CNCC(=O)O

For the assay, the system named is BDF1 mice, B16 melanoma ip, median survival T/C. As to the kind of experiment: NCI In Vivo Anticancer Drug Screen. Data for tumor model B16 Melanoma (intraperitoneal) in B6D2F1 (BDF1) mice. The conditions noted are these: endpoint: median survival time, higher = longer survival. In outline:
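Read-out: survival or tumor size, given as treated/control ratio. Controls received vehicle only; animals bore transplantable tumors.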

[1] abbreviates: dose: 50.0 mg/kg/injection, schedule: Q01DX009 (ip), vehicle: saline with Tween-80.
Where [2] appears, read: dose: 100.0 mg/kg/injection, schedule: Q01DX009 (ip), vehicle: saline with Tween-80.
Setting [3] is: dose: 200.0 mg/kg/injection, schedule: Q01DX009 (ip), vehicle: saline with Tween-80.
Where [4] appears, read: dose: 400.0 mg/kg/injection, schedule: Q01DX009 (ip), vehicle: saline with Tween-80.
[5] abbreviates: dose: 12.5 mg/kg/injection, schedule: Q01DX009 (ip), vehicle: saline with Tween-80.
Where [6] appears, read: dose: 25.0 mg/kg/injection, schedule: Q01DX009 (ip), vehicle: saline with Tween-80.
Setting [7] is: dose: 12.5 mg/kg/injection, schedule: Q01DX009 (ip), vehicle: saline.
Where [8] appears, read: dose: 25.0 mg/kg/injection, schedule: Q01DX009 (ip), vehicle: saline.
The mark [9] stands for this setting: dose: 50.0 mg/kg/injection, schedule: Q01DX009 (ip), vehicle: saline.
Where [10] appears, read: dose: 400.0 mg/kg/injection, schedule: Q01DX009 (ip), vehicle: Klucel (hydroxypropylcellulose) (HPC).
Where [11] appears, read: dose: 5.0 mg/kg/injection, schedule: Q01DX009 (ip), vehicle: saline with Tween-80.
Where [12] appears, read: dose: 100.0 mg/kg/injection, schedule: Q01DX009 (ip), vehicle: saline.
Where [13] appears, read: dose: 200.0 mg/kg/injection, schedule: Q01DX009 (ip), vehicle: saline.

Turning to `COc1cc([C@@H]2c3cc4c(cc3[C@@H](OC3OC5CO[C@@H](c6cccs6)OC5C(O)C3O)[C@H]3COC(=O)[C@H]23)OCO4)cc(OC)c1O` (stereo not given in full), the T/C reads like this: (dose: 0.25 mg/kg/injection, schedule: Q01DX009 (ip), vehicle: clinical formulation) 183 % of control; (dose: 0.25 mg/kg/injection, schedule: Q01DX009 (ip), vehicle: saline) 171 % of control; (dose: 0.5 mg/kg/injection, schedule: Q01DX009 (ip), vehicle: clinical formulation) 223 % of control; (dose: 0.5 mg/kg/injection, schedule: Q01DX009 (ip), vehicle: saline) 166 % of control and 214 % of control; (dose: 0.5 mg/kg/injection, schedule: Q01DX009 (ip), vehicle: water) 173 % of control; (dose: 1.0 mg/kg/injection, schedule: Q01DX009 (ip), vehicle: clinical formulation) 269 % of control. Also, the T/C reads like this: (dose: 1.0 mg/kg/injection, schedule: Q01DX009 (ip), vehicle: saline) 185 % of control and 254 % of control; (dose: 1.0 mg/kg/injection, schedule: Q01DX009 (ip), vehicle: water) 178 % of control; (dose: 2.0 mg/kg/injection, schedule: Q01DX009 (ip), vehicle: clinical formulation) 285 % of control; (dose: 2.0 mg/kg/injection, schedule: Q01DX009 (ip), vehicle: saline) 204 % of control and 285 % of control; (dose: 2.0 mg/kg/injection, schedule: Q01DX009 (ip), vehicle: water) 204 % of control; (dose: 4.0 mg/kg/injection, schedule: Q01DX009 (ip), vehicle: saline) 257 % of control.

Regarding `CC(C)CC(NC(=O)C(C)NC(=O)CN)C(=O)O` (stereo not drawn) (H-Gly-Ala-Leu-OH; configuration not given here), the T/C is, setting by setting: under setting [1], 97 % of control; under setting [2], 96 % of control; under setting [3], 98 % of control; under setting [4], 103 % of control.

For `Cc1ccc(C(C)(C)Cl)cc1O`, the T/C is, setting by setting: under setting [5], 117 % of control; under setting [6], 112 % of control; under setting [1], 96 % of control.

As for `Cc1ccccc1OCC(O)CO` (stereo not given), the T/C reads like this: under setting [1], 92 % of control; under setting [2], 110 % of control; under setting [3], 110 % of control; under setting [4], 105 % of control.

In the case of `CC[CH2][Pb]([CH2]CC)([CH2]CC)[O]C(=O)C(F)(F)F`, the T/C (dose: 0.39 mg/kg/injection, schedule: Q01DX009 (ip), vehicle: saline with Tween-80) is 93 % of control; the T/C (dose: 0.78 mg/kg/injection, schedule: Q01DX009 (ip), vehicle: saline with Tween-80) was 111 % of control; the T/C (dose: 1.5 mg/kg/injection, schedule: Q01DX009 (ip), vehicle: saline with Tween-80) was 104 % of control; the T/C (dose: 3.0 mg/kg/injection, schedule: Q01DX009 (ip), vehicle: saline with Tween-80) is 98 % of control; the T/C (dose: 3.12 mg/kg/injection, schedule: Q01DX009 (ip), vehicle: saline with Tween-80) is 86 % of control.

Regarding `COC(=O)C1(C(=O)OC)CCCCC1=O`, the T/C is 93 % of control (dose: 100.0 mg/kg/injection, schedule: Q04DX003 (ip), vehicle: Klucel (hydroxypropylcellulose) (HPC)) and 94 % of control (dose: 200.0 mg/kg/injection, schedule: Q04DX003 (ip), vehicle: Klucel (hydroxypropylcellulose) (HPC)).

On to `C[N+](C)(C)C1CC1`, for which the T/C reads like this: under setting [7], 105 % of control; under setting [8], 102 % of control; under setting [9], 102 % of control.

Regarding `O=C(OCCOCCOCCOC(=O)c1ccccc1)c1ccccc1`, the T/C under setting [10] was 121 % of control.

Take `COC(=O)N1C=Cc2ccccc2C1C#N` (stereo not given): the T/C is 95 % of control under setting [1] and 87 % of control under setting [2].

Turning to `CC(CN=Cc1ccccc1[O-])N=Cc1ccccc1[O-].[O]=[V]` (stereo not given), the T/C (dose: 2.5 mg/kg/injection, schedule: Q01DX009 (ip), vehicle: saline with Tween-80) was 90 % of control; the T/C under setting [11] is 90 % of control; the T/C (dose: 5.0 mg/kg/injection, schedule: Q04DX003 (ip), vehicle: saline with Tween-80) is 97 % of control; the T/C (dose: 10.0 mg/kg/injection, schedule: Q04DX003 (ip), vehicle: saline with Tween-80) was 92 % of control.

On to `COc1ccc(N=NNc2ccc(OC)cc2)cc1`, for which the T/C reads like this: under setting [11], 106 % of control; (dose: 6.25 mg/kg/injection, schedule: Q01DX009 (ip), vehicle: saline with Tween-80) 90 % of control and 94 % of control; (dose: 6.25 mg/kg/injection, schedule: Q04DX003 (ip), vehicle: saline with Tween-80) 97 % of control and 105 % of control; (dose: 10.0 mg/kg/injection, schedule: Q01DX009 (ip), vehicle: saline with Tween-80) 109 % of control; under setting [5], 86 % of control and 94 % of control; (dose: 12.5 mg/kg/injection, schedule: Q04DX003 (ip), vehicle: saline with Tween-80) 107 % of control and 113 % of control. Besides, the T/C (dose: 16.5 mg/kg/injection, schedule: Q04DX003 (ip), vehicle: saline with Tween-80) is 95 % of control; the T/C (dose: 20.0 mg/kg/injection, schedule: Q01DX009 (ip), vehicle: saline with Tween-80) was 109 % of control; the T/C under setting [6] was 93 % of control and 94 % of control; the T/C (dose: 25.0 mg/kg/injection, schedule: Q04DX003 (ip), vehicle: saline with Tween-80) was 100 % of control and 107 % of control; the T/C (dose: 37.5 mg/kg/injection, schedule: Q04DX003 (ip), vehicle: saline with Tween-80) was 100 % of control; the T/C (dose: 40.0 mg/kg/injection, schedule: Q01DX009 (ip), vehicle: saline with Tween-80) was 112 % of control. Besides, the T/C runs as follows: under setting [1], 97 % of control; (dose: 50.0 mg/kg/injection, schedule: Q04DX003 (ip), vehicle: saline with Tween-80) 110 % of control.

As for `Cn1c(C(Cl)Cl)nc2ccccc2c1=O`, the T/C was 110 % of control under setting [5], 105 % of control under setting [6] and 105 % of control under setting [1].

For `O=c1c2ccccc2sc2ccc(Br)cc12`, the T/C is 110 % of control (dose: 100.0 mg/kg/injection, schedule: Q01DX009 (ip), vehicle: Klucel (hydroxypropylcellulose) (HPC)); 100 % of control (dose: 200.0 mg/kg/injection, schedule: Q01DX009 (ip), vehicle: Klucel (hydroxypropylcellulose) (HPC)); 102 % of control under setting [10].

As for `NC(=O)N/N=C1\CC2C=CCC12` (stereo not given), the T/C under setting [1] is 105 % of control, the T/C under setting [2] was 97 % of control and the T/C under setting [3] is 101 % of control.

For `Cc1cc(C)[nH]c(=S)n1`, the T/C reads like this: under setting [9], 95 % of control; under setting [12], 95 % of control; under setting [13], 106 % of control.

`COc1cccc2c1C(=O)c1c(O)c3c(c(O)c1C2=O)C[C@@](O)(/C(C)=N/NC(=O)c1ccc(S(N)(=O)=O)cc1)C[C@@H]3OC1CC(N)C(O)C(C)O1` (stereo not given in full): the T/C is, setting by setting: (dose: 3.13 mg/kg/injection, schedule: Q01DX009 (ip), vehicle: water) 190 % of control; (dose: 6.25 mg/kg/injection, schedule: Q01DX009 (ip), vehicle: water) 258 % of control; (dose: 12.5 mg/kg/injection, schedule: Q01DX009 (ip), vehicle: water) 259 % of control.

On to `CC(=O)OCC1OC(n2cnc3c(=S)nc[nH]c32)C(OC(C)=O)C1OC(C)=O` (stereo not given), for which the T/C is 114 % of control (dose: 50.0 mg/kg/injection, schedule: Q01DX009 (ip), vehicle: suspension in saline); 109 % of control (dose: 100.0 mg/kg/injection, schedule: Q01DX009 (ip), vehicle: suspension in saline); 106 % of control (dose: 100.0 mg/kg/injection, schedule: Q04DX003 (ip), vehicle: saline with Tween-80); 100 % of control (dose: 200.0 mg/kg/injection, schedule: Q04DX003 (ip), vehicle: saline with Tween-80); 91 % of control (dose: 400.0 mg/kg/injection, schedule: Q04DX003 (ip), vehicle: saline with Tween-80).

Turning to `O=C1CN(CN2CCOCC2)C(=O)CN1CN1CCOCC1`, the T/C reads like this: under setting [7], 98 % of control; under setting [8], 102 % of control; under setting [9], 112 % of control; under setting [12], 104 % of control; under setting [13], 101 % of control.

With `CC(C)C(NC(=O)CN(C)C(=O)OCc1ccccc1)C(=O)O` (stereo not given) (Cbz-[Sar]-[ξV]-OH), the T/C is, setting by setting: (dose: 6.25 mg/kg/injection, schedule: Q01DX009 (ip), vehicle: saline) 96 % of control; under setting [7], 104 % of control; under setting [8], 93 % of control; under setting [9], 97 % of control and 101 % of control.

Take `C1OCN2CSCC12` (stereo not given): the T/C is 108 % of control under setting [5], 109 % of control under setting [6], 101 % of control under setting [1] and 106 % of control under setting [2].

With `Nc1ccccc1O`, the T/C by setting is: under setting [9], 93 % of control and 99 % of control; under setting [12], 101 % of control and 93 % of control; under setting [13], 91 % of control and 94 % of control.

(Values after PubChem BioAssay AID192 (DTP/NCI, 2004).)
